In patent US6716437B1, “Topical composition and method for enhancing lipid barrier synthesis” (E-L Management Corporation, priority 1993, dated 2004):
Entries after “also recorded” stand apart in the source; their conditions may differ.

Tests used:
Living skin models [1] = assay: Histology of treated living skin models; format: cell-based; details: living skin squares, fixed, sectioned, hematoxylin/eosin
Protocol: C. Histology. To determine the histological effect of cafestol application to living skin, skin squares are treated as described above; at the end of the incubation period, samples are fixed, sectioned and stained with hematoxylin/eosin.

stratum corneum lipids = assay: Clinical study: ceramide levels on human skin by thin layer chromatography; format: in vivo
Protocol: A. Determination of cafestol activity on lipid production. […] A short clinical study, consisting of five subjects, is then carried out under the same conditions in order to test the ability of cafestol acetate to raise ceramide levels. At zero time, ethanol washes are performed in order to remove stratum corneum lipids from both arms. Cafestol acetate, prepared in ethanol at a concentration of 1 mg/ml, is applied twice a day with a pump spray to the right volar forearm. As a control, ethanol is applied at the corresponding site at the left arm. On day three, stratum corneum lipids are again removed and both zero time and day three lipids from both arms are evaluated by thin layer chromatography as described above.

Living skin models [2] = assay: Living skin models: ceramide/lipid production by HPTLC/TLC; format: cell-based
Protocol: A. Determination of cafestol activity. Living skin models (#1301) are obtained from Advanced Tissue Sciences and treated with cafestol acetate(Sigma)by addition of a stock solution prepared in cell culture medium in a dose-dependent manner from 0.01 mg/ml to 1.0 mg/ml, or in a time-dependent manner at 0.5 mg/ml for up to 7 days. All experiments are conducted with untreated controls. At each dose or time point, the skin models are homogenized and the lipids extracted with chloroform/methanol(2:1), taken to dryness, and resuspended in chloroform. Samples are chromatographed on HPTLC and their lipid composition visualized by degradative charring (Melnick et al., J. Invest. Dermatol 92:231-234, 1989)
B. Comparison of cafestol activity with coffee bean oil activity. To compare the lipid enhancing activity of cafestol with that of coffee bean oil, living skin models are treated over a period of five days with increasing amounts of cafestol acetate in a range from 0.01 mg/ml to 1.0 mg/ml. A parallel set of living skin squares is also tested with a sample of coffee bean oil (Robeco). At the end of the incubation period, each skin square is homogenized and its lipids extracted in chloroform/methanol (2:1). This is followed by TLC analysis. Ceramides are identified by degradative charring and comparison to ceramide standards. Densitometric analysis of the TLC plate is carried out with an Optimas Bioscan.

skin barrier = assay: Clinical study: skin barrier function by tape stripping and TEWL; format: in vivo, human; details: twice a day, volar forearm
Protocol: B. Effect of cafestol on skin barrier function. Ten healthy female subjects, between the ages of 25-45. with normal skin on their forearms are tested in this study. […] They acclimate in the environmental room at 40% relative humidity and 70° F. for 20 minutes before their baseline measurements are recorded. They are then randomly assigned to one of two treatment groups.
Group I (n=5) receives treatment containing cafestol at 0.1% to use on one arm and a placebo to use on the other arm. Group II (n+5) uses a treatment containing 0.2% cafestol palmitate on one arm and a treatment containing 0.1% cafestol acetate on the other arm. The subjects self-administer the treatment twice a day on the lower part of their volar forearms except on the day of testing.
A five cm by two cm are is marked using a template on the lower inner forearm and initial water evaporation measurements are taken in three separate spots approximately 1 cm apart in a row. Five cm of the cello-tape is placed on the skin in the outlined area, starting from the top and after one firm stroke in each direction is removed by gently pulling in a downward direction parallel to the skin. The procedure is repeated and water evaporation is measured after every five to ten strips until the barrier is broken, as indicated by a minimum water evaporation of 18 g/sq m hr on one of the three spots. The subjects' transepidermal water loss (TEWL) is monitored on the challenged sites after 1, 2 and 3 days in order to measure the ability of the skin to repair itself. After 5 and 10 days of product treatment, the above procedure is repeated under the same test conditions on an adjacent new site.
TEWL is measured with the Servo Med Evaporimeter, fitted with a chimney and gauze. The subjects are in a relaxed inclined position, and are not allowed to converse or get excited. TEWL is recorded automatically using the Dia-Stron computer program set at a 30 second data acquisition time and a 15 second plateau.
B. Barrier strength measurements. Barrier strength is evaluated by challenging the skin with tape stripping and measuring the water evaporation (WE). To describe the experimental data, curve fitting Linear Regression Analysis based on least-square method is performed on each individual's data and the number of tape strippings required to reach a WE of 18 g/sq m/hr is recorded for each visit. The number of tape strippings required to perturb the barrier is a measure of its strength.

| Compound | stratum corneum (histological analysis) (Living skin models [1]) | ceramide I level (stratum corneum lipids; five subjects, 1 mg/ml in ethanol twice a day, volar forearm, day three) | ceramide I level (stratum corneum lipids; initial test, single individual, applied directly to skin over three days) | ceramide IV level (stratum corneum lipids; the subject without ceramide I increase, 1 mg/ml in ethanol twice a day, day three) | ceramide production, comparison with coffee bean oil (TLC, densitometric scan) (Living skin models [2]; five days, 0.01 mg/ml to 1.0 mg/ml) | increase in barrier strength (number of tape strippings to reach WE of 18 g/sq m/hr) (skin barrier; after 5 days of treatment) [%] | increase in barrier strength (number of tape strippings to reach WE of 18 g/sq m/hr) (skin barrier; after 10 days of treatment) [%] | ceramides as a function of dose (HPTLC) (Living skin models [2]; 0.01 mg/ml to 1.0 mg/ml) | ceramides as a function of time (HPTLC) (Living skin models [2]; 0.5 mg/ml for up to 7 days) |
| --- | --- | --- | --- | --- | --- | --- | --- | --- | --- |
| C[C@@]12CCc3occc3[C@H]1CC[C@@]13C[C@@H](CC[C@H]12)[C@@](O)(CO)C3 [cafestol] | clear increase in stratum corneum | increased levels of ceramide I in four of the five subjects | elevated | increase in ceramide IV | dose-dependent increase in ceramide production |  |  |  |  |
| CC(=O)OC[C@@]1(O)C[C@@]23CC[C@@H]4c5ccoc5CC[C@@]4(C)[C@@H]2CC[C@@H]1C3 [cafestol acetate] |  |  |  |  |  | 10 | 38 | increase in ceramide production with increasing dosage; also recorded: selective increase in ceramides as a function of dose | presence of ceramides after only one day of application, reaching maximum concentrations after three days |
| CCCCCCCCCCCCCCCC(=O)OC[C@@]1(O)C[C@@]23CC[C@@H]4c5ccoc5CC[C@@]4(C)[C@@H]2CC[C@@H]1C3 [cafestol palmitate] |  |  |  |  |  | 8 | 43 |  |  |
